In brackets after ≈: the same amount, converted by molar mass.
Legend:
[1] = system: Plasmodium berghei; assay: Antiplasmodial activity against GFP expressing Plasmodium berghei ANKA infected in NMRI mouse assessed as mouse mean survival days at 10 mg/kg, ip administered 4 hrs, 24 hrs, 48 hrs, 72 hrs post infection for 4 days and measured 72 hrs post infection by FACS analysis (reference value: 4 days); type: functional
[2] = system: Plasmodium falciparum; assay: Antimalarial activity against erythrocytic stage of Plasmodium falciparum NF54 assessed as inhibition of [3H]-hypoxanthine incorporation after 48 hrs by liquid scintillation counting analysis; type: functional, organism-based
[3] = Selectivity index, ratio of IC50 for rat L6 cells to IC50 for Trypanosoma brucei rhodesiense STIB900 bloodstream forms; type: toxicity; settings: read-out: Ratio IC50
[4] = Growth inhibition of human MRC5 cells at 140 uM after 72 hrs by XTT assay relative to control; type: cell-based; settings: read-out: GI
[5] = system: L6; assay: Cytotoxicity against rat L6 cells after 70 hrs by Alamar blue staining-based fluorometric analysis; type: cell-based; settings: L6, 70 h
[6] = system: Plasmodium berghei; assay: Antiplasmodial activity against GFP expressing Plasmodium berghei ANKA infected in NMRI mouse assessed as reduction in parasitemia at 10 mg/kg, ip administered 4 hrs, 24 hrs, 48 hrs, 72 hrs post infection for 4 days and measured 72 hrs post infection by FACS analysis relative to control; type: functional; design: scale not given: the % may be the effect or the level left
[7] = Selectivity index, ratio of IC50 for rat L6 cells to IC50 for erythrocytic stage of Plasmodium falciparum NF54; type: toxicity; settings: read-out: Ratio IC50
[8] = system: Trypanosoma brucei rhodesiense; assay: Antitrypanosomal activity against Trypanosoma brucei rhodesiense STIB900 bloodstream forms after 70 hrs by Alamar blue staining-based fluorometric analysis; type: functional, organism-based; settings: STIB900, 70 h
[9] = system: Candida tropicalis; assay: Antimicrobial activity against Candida tropicalis ATCC 13803 assessed as zone of inhibition at 50 ug per disc after 48 hrs by disc diffusion assay; type: functional; settings: ATCC 13803, 48 h, read-out: DIZ
[10] = system: Klebsiella oxytoca; assay: Antimicrobial activity against Klebsiella oxytoca ATCC 8724 assessed as zone of inhibition at 50 ug per disc after 24 hrs by disc diffusion assay; type: functional; settings: ATCC 8724, 24 h, read-out: DIZ
[11] = system: Pseudomonas aeruginosa; assay: Antimicrobial activity against Pseudomonas aeruginosa ATCC 27853 assessed as zone of inhibition at 50 ug per disc after 24 hrs by disc diffusion assay; type: functional; settings: ATCC 27853, 24 h, read-out: DIZ
[12] = system: Escherichia coli; assay: Antimicrobial activity against Escherichia coli ATCC 25922 assessed as zone of inhibition at 50 ug per disc after 24 hrs by disc diffusion assay; type: functional; settings: ATCC 25922, 24 h, read-out: DIZ
[13] = system: Candida albicans; assay: Antimicrobial activity against Candida albicans ATCC 10231 assessed as zone of inhibition at 50 ug per disc after 48 hrs by disc diffusion assay; type: functional; settings: ATCC 10231, 48 h, read-out: DIZ
[14] = Growth inhibition of human MRC5 cells at 120 uM after 72 hrs by XTT assay relative to control; type: cell-based; settings: read-out: GI
[15] = system: Mycolicibacterium smegmatis; assay: Antimycobacterial activity against Mycobacterium smegmatis ATCC 14468 after 72 hrs by MTT dye-based microbroth dilution assay; type: functional; settings: ATCC 14468, 72 h
[16] = system: Bacillus subtilis; assay: Antimicrobial activity against Bacillus subtilis subsp. subtilis ATCC 6051 assessed as zone of inhibition at 50 ug per disc after 24 hrs by disc diffusion assay; type: functional; settings: subsp. subtilis ATCC 6051, 24 h, read-out: DIZ
[17] = system: Staphylococcus aureus; assay: Antimicrobial activity against Staphylococcus aureus subsp. aureus ATCC 25923 assessed as zone of inhibition at 50 ug per disc after 24 hrs by disc diffusion assay; type: functional; settings: ATCC 25923, 24 h, read-out: DIZ
[18] = system: Staphylococcus epidermidis; assay: Antimicrobial activity against Staphylococcus epidermidis ATCC 12228 assessed as zone of inhibition at 50 ug per disc after 24 hrs by disc diffusion assay; type: functional; settings: ATCC 12228, 24 h, read-out: DIZ
[19] = system: Candida parapsilosis; assay: Antimicrobial activity against Candida parapsilosis ATCC 90018 assessed as zone of inhibition at 50 ug per disc after 48 hrs by disc diffusion assay; type: functional; settings: Lodderomyces parapsilosis, ATCC 90018, 48 h; read-out: DIZ
[20] = Growth inhibition of human MRC5 cells at 117 uM after 72 hrs by XTT assay relative to control; type: cell-based; settings: read-out: GI
[21] = Growth inhibition of human MRC5 cells assessed as metabolic active cells level at 123.3 uM after 72 hrs by XTT assay relative to control; type: ADME, cell-based; settings: read-out: Activity
[22] = system: Plasmodium berghei; assay: Antiplasmodial activity against GFP expressing Plasmodium berghei ANKA infected in NMRI mouse assessed as reduction in parasitemia at 50 mg/kg, ip administered 4 hrs, 24 hrs, 48 hrs, 72 hrs post infection for 4 days and measured 72 hrs post infection by FACS analysis relative to control; type: functional; design: scale not given: the % may be the effect or the level left
[23] = system: Plasmodium berghei; assay: Antiplasmodial activity against GFP expressing Plasmodium berghei ANKA infected in NMRI mouse assessed as mouse mean survival days at 50 mg/kg, ip administered 4 hrs, 24 hrs, 48 hrs, 72 hrs post infection for 4 days and measured 72 hrs post infection by FACS analysis (reference value: 4 days); type: functional
[24] = Growth inhibition of human MRC5 cells assessed as metabolic active cells level at 147.7 uM after 72 hrs by XTT assay relative to control; type: ADME, cell-based; settings: read-out: Activity
[25] = system: MRC5; assay: Cytotoxicity against human MRC5 cells after 72 hrs by XTT assay; type: cell-based; settings: MRC5, 72 h
[26] = Growth inhibition of human MRC5 cells at 134 uM after 72 hrs by XTT assay relative to control; type: cell-based; settings: read-out: GI

SMILES | IC50 [2] | selectivity ratio [3] | IC50 ([5]; read-out: IC50) | selectivity ratio [7] | IC50 [8] | further results
CC1(C)CC(=[N+]2CCCC2)C=CN1Cc1ccc2ccccc2n1.[Cl-] | 0.09 µM | 7.53 | 125 µM | 1390 | 16.6 µM | MSD [1]: 3 days; inhibition at 72 h, 140 µM [4]: 27 to 56%; Activity [6]: 0%
CC(C)c1ccc(CN2C=CC(=[N+]3CCCC3)CC2(C)C)cc1 | 0.015 µM | 0.054 | 0.176 µM | 11.7 | 3.24 µM | 
CC1(C)CC(=[N+]2CCCC2)C=CN1Cc1ccc(C(F)(F)F)cc1.[Br-] | 0.036 µM | 4.6 | 125 µM | 3480 | 27.2 µM | zone of inhibition at 50 µg/disc [9]: 15 mm; zone of inhibition at 50 µg/disc [10]: 7 mm; zone of inhibition at 50 µg/disc [11]: 0 mm; zone of inhibition at 50 µg/disc [12]: 0 mm; MSD [1]: 7 days; zone of inhibition at 50 µg/disc [13]: 15 mm; inhibition at 72 h, 120 µM [14]: 27 to 56%; MIC [15]: 64 µg/mL; zone of inhibition at 50 µg/disc [16]: 10 mm; zone of inhibition at 50 µg/disc [17]: 8 mm; Activity [6]: 54.2%; zone of inhibition at 50 µg/disc [18]: 18 mm; zone of inhibition at 50 µg/disc [19]: 0 mm
CC1(C)CC(=[N+]2CCCC2)C=CN1Cc1cccc2ccccc12 | 0.063 µM | 0.69 | 0.61 µM | 9.68 | 0.89 µM | 
CC1(C)CC(=[N+]2CCCC2)C=CN1Cc1ccc(Br)cc1.[Br-] | 0.026 µM | 0.8 | 11.6 µM | 445 | 14.5 µM | MSD [1]: 4 days; Activity [6]: 48.1%; inhibition at 72 h, 117 µM [20]: 27 to 56%
Cc1ccc(CN2C=CC(=[N+]3CCCC3)CC2(C)C)cc1 | 0.1 µM | 22.4 | 94.9 µM | 949 | 4.24 µM | 
COc1cc(CN2C=CC(=[N+]3CCCC3)CC2(C)C)cc(OC)c1OC | 1.1 µM | 11.8 | 192 µM | 174 | 16.2 µM | 
CC1(C)CC(=[N+]2CCCC2)C=CN1Cc1ccccc1Cl | 0.12 µM | 0.93 | 9.73 µM | 81.1 | 10.5 µM | 
CC1(C)CC(=[N+]2CCCC2)C=CN1Cc1ccccn1 | 2.18 µM | > 3.26 | > 327 µM | > 150 | 100 µM | 
CC(C)(C)c1ccc(CN2C=CC(=[N+]3CCCC3)CC2(C)C)cc1 | 0.04 µM | 0.025 | 0.017 µM | 0.43 | 0.67 µM | viability at 72 h, 123.3 µM [21]: 0 to 10%
CC1(C)CC(=[N+]2CCCC2)C=CN1Cc1ccccc1C#N | 1.09 µM | > 3.77 | > 267 µM | > 245 | 70.9 µM | 
CC1(C)CC(=[N+]2CCCC2)C=CN1Cc1ccc(Cl)cc1Cl | 0.043 µM | 0.23 | 2.99 µM | 69.5 | 12.8 µM | 
CC1(C)CC(=[N+]2CCCC2)C=CN1c1ccccc1 | 0.36 µM |  |  |  |  | 
CC1(C)CC(=[N+]2CCCC2)C=CN1Cc1ccccc1 | 0.13 µM | 0.2 | 12.3 µM | 94.8 | 61.6 µM | 
CC1(C)CC(=[N+]2CCCC2)C=CN1Cc1ccc([N+](=O)[O-])cc1.[Cl-] | 0.1 µM | > 3.58 | > 286 µM | > 2860 | 79.8 µM | zone of inhibition at 50 µg/disc [9]: 13 mm; Activity [22]: 78.4%; zone of inhibition at 50 µg/disc [10]: 7 mm; zone of inhibition at 50 µg/disc [11]: 0 mm; MSD [23]: 7 days; zone of inhibition at 50 µg/disc [12]: 0 mm; zone of inhibition at 50 µg/disc [13]: 8 mm; MIC [15]: ≥ 128 µg/mL; zone of inhibition at 50 µg/disc [16]: 0 mm; zone of inhibition at 50 µg/disc [17]: 0 mm; zone of inhibition at 50 µg/disc [18]: 7 mm; zone of inhibition at 50 µg/disc [19]: 0 mm
CC1(C)CC(=[N+]2CCCC2)C=CN1Cc1ccc2c(c1)OCO2 | 0.046 µM | 1.11 | 20.8 µM | 451 | 18.7 µM | 
CC1(C)CC(=[N+]2CCCC2)C=CN1Cc1ccc(F)cc1.[Br-] | 0.11 µM | > 6.94 | > 272 µM | > 2480 | 39.2 µM | MSD [1]: 4 days; Activity [6]: 31.6%
CC1(C)CC(=[N+]2CCCC2)C=CN1Cc1ccccc1C(F)(F)F | 0.18 µM | 0.71 | 6.95 µM | 38.6 | 9.75 µM | 
COc1ccc(CN2C=CC(=[N+]3CCCC3)CC2(C)C)cc1 | 0.11 µM | 7.56 | 168 µM | 1530 | 22.2 µM | 
CC1(C)CC(=[N+]2CCCC2)C=CN1Cc1ccc(Cl)cc1.[Cl-] | 0.027 µM | 1.02 | 20.1 µM | 743 | 19.7 µM | zone of inhibition at 50 µg/disc [9]: 21 mm; zone of inhibition at 50 µg/disc [10]: 7 mm; zone of inhibition at 50 µg/disc [11]: 0 mm; zone of inhibition at 50 µg/disc [12]: 0 mm; MSD [1]: 9 days; zone of inhibition at 50 µg/disc [13]: 20 mm; viability at 72 h, 147.7 µM [24]: 0 to 10%; IC50 [25]: 121 µM; MIC [15]: 32 µg/mL; zone of inhibition at 50 µg/disc [16]: 11 mm; zone of inhibition at 50 µg/disc [17]: 14 mm; Activity [6]: 45.8%; zone of inhibition at 50 µg/disc [18]: 22 mm; zone of inhibition at 50 µg/disc [19]: 0 mm
CC1(C)CC(=[N+]2CCCC2)C=CN1Cc1ccc(Cl)c(Cl)c1.[Cl-] | 0.021 µM | 9.03 | 112 µM | 5350 | 12.4 µM | MSD [1]: 4 days; Activity [6]: 39.9%; inhibition at 72 h, 134 µM [26]: 27 to 56%
CCN(CC)CCCC(C)Nc1ccnc2cc(Cl)ccc12 (centres undefined) [CHLOROQUINE] |  |  |  |  |  | MSD [1]: 20 days; Activity [6]: 99.6%
OC(Cn1cncn1)(Cn1cncn1)c1ccc(F)cc1F [FLUCONAZOLE] |  |  |  |  |  | zone of inhibition at 50 µg/disc [9]: 36 mm; zone of inhibition at 50 µg/disc [13]: 24 mm; zone of inhibition at 50 µg/disc [19]: 28 mm
NNC(=O)c1ccncc1 [ISONIAZID] |  |  |  |  |  | MIC [15]: 4 µg/mL (≈ 29.2 µM)
NC[C@H]1O[C@H](O[C@H]2[C@H](O)[C@@H](O[C@H]3O[C@H](CO)[C@@H](O)[C@H](N)[C@H]3O)[C@H](N)C[C@@H]2N)[C@H](O)[C@@H](O)[C@@H]1O [KANAMYCIN] |  |  |  |  |  | zone of inhibition at 50 µg/disc [12]: 14 mm; zone of inhibition at 50 µg/disc [16]: 13 mm; zone of inhibition at 50 µg/disc [17]: 17 mm
CC1(C)S[C@@H]2[C@H](NC(=O)Cc3ccccc3)C(=O)N2[C@H]1C(=O)O [PENICILLIN G] |  |  |  |  |  | zone of inhibition at 50 µg/disc [10]: 8 mm
COc1cc([C@@H]2c3cc4c(cc3[C@H](O)[C@H]3COC(=O)[C@H]23)OCO4)cc(OC)c1OC [PODOFILOX] |  |  |  |  |  | IC50 [5]: 0.012 µM
CN(C)[C@@H]1C(O)=C(C(N)=O)C(=O)[C@@]2(O)C(O)=C3C(=O)c4c(O)cccc4[C@@](C)(O)[C@H]3C[C@@H]12 [TETRACYCLINE] |  |  |  |  |  | zone of inhibition at 50 µg/disc [18]: 13 mm

Reference: ChEMBL document CHEMBL4138198, “Synthesis of new 1-benzyl tetrahydropyridinylidene ammonium salts and their antimicrobial and anticellular activities” (Eur J Med Chem, 2018)
